In patent US6649797B2, “Compounds and methods of use to treat infectious diseases” (The Picower Institute for Medical Research, priority 1996, dated 2003):
Where two headings read alike, the source gives them in different places.

Legend:
[1] = molecular target: T1, HIV-1 pre-integration complex (MA / HIV-1 cDNA) (Human immunodeficiency virus type 1 group M subtype B, UniProt P05890+P05959); experiment: Association of MA with HIV-1 cDNA (anti-MA immunoprecipitation of viral DNA); type: biochemical; settings: 10 μM (FIG. 13A)
T1 construct: MA is made from the Gag precursor and RT is made from the Gag-Pol precursor; endogenous in cells; host or cells: cytoplasmic extract of H9 cells infected with HIV-1RF
Method: Cytoplasmic extracts prepared from H9 cells infected with HIV-1RF were treated with 10 μM CNI-H0294 (lanes 2, 3, and 4) or left untreated (lane 1). Samples were divided into two aliquots. One aliquot was mixed with GST-karyopherin α immobilized on Sepharose beads and the HIV-1 DNA that bound was quantified by PCR. The second aliquot was immunoprecipitated (IP) with anti-MA serum (αMA, lane 3) or with pre-immune serum (NSS, lane 4) as control.
To test this hypothesis, cytoplasmic lysates of HIV-1-infected H9 cells were treated with CNI-H0294 and mixed with immobilized karyopherin α or subjected to immunoprecipitation with antibodies that bind MA.

[2] = tested on: BSA with conjugated NLS peptides that mimic the NLS of SV40 large T antigen; experiment: Nuclear import of BSA with conjugated NLS peptides of SV40 large T antigen
HIV-1 = experiment: Reverse transcription of HIV-1 in infected cells; type: cell-based
Plasmodium falciparum = experiment: Antimalarial activity in vitro, [3H]-hypoxanthine incorporation; type: cell-based; settings: Plasmodium falciparum
Text: The antimalarial properties of the compounds of the invention can be analyzed by techniques, assays and experimental animal models well known in the art. For example, the inhibition of growth of Plasmodium falciparum in vitro by the compounds may be assessed by the hypoxanthine-incorporation method (Desjardins et al., 1979, Antimicrob. Ag. Chemother. 16:710-718). […] The in vivo efficacy of the compounds can also be tested in mouse models in which parasitemia is enumerated following administration of the compound (Ager, A. L. 1984, Rodent malaria models, pp 225-264. In Handbook of Experimental Pharmacology vol. 68, Antimalarial Drugs, Peters and Richards eds, Springer-Verlag, Berlin).
The antimalarial activity of the compounds was determined essentially as described in Desjardins et al. supra. Fifty μl of various concentrations of a compound of the invention, chloroquine, or pyrimethamine were added to the wells of microtiter plates, followed by 200 μl of ring-stage, synchronized, P. falciparum-infected erythrocytes (final hematocrit=1.5%, final parasitemia=1-5%). The plates were incubated for 24 hr in a candle jar kept at 37° C., and then 25 μl of [^3H]-hypoxanthine (Amersham, Arlington Heights, ILL.; 2.5 μl Ci/well) was added. The plates were then incubated for a further 24 hr, before harvesting onto Unifilter-96 GF/C filter-microplates (Packard; Meriden, Conn.). Twenty-five μl of Microscint scintillation fluid (Packard) was added to each well of the filter-microplate, which was subsequently counted in a Top-count microplate scintillation counter (Packard). The percent of [^3H]-hypoxanthine uptake relative to control infect-erythrocytes was used to determine the IC50 value for the compounds by non-linear regression for LD50 determination.

HIV-1ADA = HIV-1ADA replication in purified monocytes, RT activity in supernatant (FIG. 2); type: cell-based; settings: Human immunodeficiency virus 1, Monocyte, monocytes without M-CSF
Method: FIGS. 2A-C. The effect of various concentrations of Compound No. 2 on RT activity in the supernatant of HIV-1-infected monocytes. FIG. 2A: Multiplicity of Infection (MOI) 1 ng p24/10^6 monocytes, culture d in presence of M-CSF. FIG. 2B: MOI 8 ng p24/10^6 monocytes, cultured in absence of M-CSF. FIG. 2C: MOI 0.8 ng p24/10^6 monocytes, cultured in absence of M-CSF.
The cultures were treated with none or between 10^−12 and 10^−6 M Compound No. 2 and, simultaneously with the beginning of treatment, the cells were exposed to the monocyte-tropic strain HIV-1ADA at about 0.01 TCID50/cell (1 ng p24/10^6 cells) for 2 hours. Samples were withdrawn at days 3, 6, 10, 14 and 17 after infection and assayed for reverse transcription activity.
FIGS. 2B and 2C show the effects of various concentrations of Compound No. 2 on the production of HIV-1 in monocyte cultures not supplemented with M-CSF. In these studies MOI, as determined by concentration of p24 antigen was; FIG. 2B (8 ng/10^6 cells) and FIG. 2C (0.8 ng/10^6 cells).
Primary human monocytes were obtained from peripheral blood by Ficoll-Hypaque centrifugation and adherence to plastic as described previously. Gartner S. P., et al., 1986, Science 233:215. […]
Virus stock and infection. […] The concentration of HIV-1 was determined by immunoassay of viral p24, concentration; using a conversion factor of 1 ng/200 HIV-1 particles. […]

## CC(=O)c1cc(Nc2cc(C)[n+](C)c(N)n2)cc(C(C)=O)c1 [CNI-0294, 2-Amino-4-(3,5-diacetylphenyl)amino-1,6-dimethylpyrimidinium chloride]
[1]
  immunoprecipitation of viral DNA with anti-MA serum: did not prevent immunoprecipitation of viral DNA with anti-MA serum
[2]
  block of nuclear import of BSA with conjugated NLS peptides: did not block
HIV-1
  inhibition of reverse transcription of HIV-1 in infected cells: did not significantly inhibit
Plasmodium falciparum; FCR3, clone FCR-3, ± standard deviation, read-out: IC50
  IC50: 3090 ± 300 nM
Plasmodium falciparum; HB3, clone HB3, ± standard deviation, read-out: IC50
  IC50: 1790 ± 270 nM
Plasmodium falciparum; clone D10, ± standard deviation, read-out: IC50
  IC50: 4000 ± 410 nM
Plasmodium falciparum; series of cloned parasites with different sensitivities to chloroquine or pyrimethamine, read-out: median inhibitory concentration (IC50)
  IC50: 1790 to 4000 nM

## CC(=O)c1cc(Nc2cc(C)[n+](C)c(N)n2)cc(C(C)=O)c1.[I-] [Compound No. 2, 2-amino-4-(3,5-diacetylphenyl)amino-1,6-dimethylpyrimidinium iodide]
HIV-1ADA; MOI 0.8 ng p24/10^6 cells (FIG. 2C)
  IC50: < 1 nM
HIV-1ADA; MOI 8 ng p24/10^6 cells (FIG. 2B)
  IC50: ~10 nM
